The values that follow come from patent publication US20240299400A1, “Transcription Factor GLI1 Inhibitors and Uses Thereof” (University of Connecticut, priority 2023, published 2024).

For experiment [1], the system named is GLI1 mRNA expression. As to the kind of experiment: RT-qPCR GLI1 mRNA expression in Sufu-KO MEFs. The format is cell-based, mouse. Particulars: for IC50: Mus musculus, Ave ± SEM, read-out: RT-qPCR, IC50 Sufu-KO.
Experiment [2] concerns GLI1 mRNA expression. As to the kind of experiment: RT-qPCR GLI1 mRNA expression in ASZ001 BCC cells. Particulars: Mus musculus, Ave ± SEM, read-out: RT-qPCR, IC50 ASZ001. The format is cell-based, mouse. For orientation: Real-time PCR tracks product formation cycle by cycle.
The test system of a further experiment is ASZ001 cells. The experiment is described as follows: MTS anti-proliferative assay in ASZ001 cells. The settings on record: Mus musculus, ASZ001, Ave ± SEM. Type of experiment: cell-based, murine. (Tetrazolium dyes change colour on reduction, which living cells bring about.)
In the next experiment the target is T1, TGFBR1 (Homo sapiens, UniProt P36897).
T1 construct: purchased ThermoFisher Scientific (Madison, WI, USA), contract service
T1 sequence (P36897 34-503): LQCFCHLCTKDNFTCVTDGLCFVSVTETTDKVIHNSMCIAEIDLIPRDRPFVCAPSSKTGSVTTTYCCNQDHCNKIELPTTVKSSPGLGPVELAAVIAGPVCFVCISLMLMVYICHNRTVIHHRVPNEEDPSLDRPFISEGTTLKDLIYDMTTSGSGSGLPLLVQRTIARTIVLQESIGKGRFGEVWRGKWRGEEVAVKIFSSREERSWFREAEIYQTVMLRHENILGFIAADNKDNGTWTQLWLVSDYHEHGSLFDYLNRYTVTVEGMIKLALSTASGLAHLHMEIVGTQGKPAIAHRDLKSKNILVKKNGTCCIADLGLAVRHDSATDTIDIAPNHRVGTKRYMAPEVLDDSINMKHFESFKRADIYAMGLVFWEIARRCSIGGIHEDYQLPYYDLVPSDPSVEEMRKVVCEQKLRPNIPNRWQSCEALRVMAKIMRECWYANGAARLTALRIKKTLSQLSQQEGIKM
As to the kind of experiment: LanthaScreen binding assay, TGFBR1. The settings on record: average of three replicates, read-out: % inhibition of the kinase TGFBR1. On the procedure:
(§1) Kinase screening experiments. Kinase inhibition/binding experiments were performed by ThermoFisher Scientific (Madison, WI, USA) as a contract service, utilizing their default protocols [G. Yernale, A comprehensive review on the biological interest of quinoline and its derivatives. Bioorg. Med. Chem. 32 (2021) 115973]. Briefly, for ZLyte assay, compound in DMSO (100 nL), kinase buffer (2.4 μL), peptide/kinase mixture (5 μL), and ATP solution (2.5 μL) were mixed in a black 384-well plate. Following a 30 s plate shake to mix reagents, the kinase assay mixture was incubated at RT for 60 min. Following addition of the development reagent solution to each well, another 60 min incubation was performed at RT for reaction development. Fluorescent signal was recorded and subsequently analyzed.
For the LanthaScreen Binding assay, compounds in DMSO (160 nL), kinase buffer (3.84 μL), kinase/antibody mixture (8.0 μL), and tracer (4.0 μL) were mixed in a white 384-well plate. Following a 30 s plate shake to mix the reagents, the kinase assay mixture was incubated at RT for 60 min. Fluorescent signals were recorded and subsequently analyzed.

For the next experiment, the target named is T2, CSF1R (Homo sapiens, UniProt P07333).
T2 construct: purchased ThermoFisher Scientific (Madison, WI, USA), contract service
T2 sequence (P07333 20-972): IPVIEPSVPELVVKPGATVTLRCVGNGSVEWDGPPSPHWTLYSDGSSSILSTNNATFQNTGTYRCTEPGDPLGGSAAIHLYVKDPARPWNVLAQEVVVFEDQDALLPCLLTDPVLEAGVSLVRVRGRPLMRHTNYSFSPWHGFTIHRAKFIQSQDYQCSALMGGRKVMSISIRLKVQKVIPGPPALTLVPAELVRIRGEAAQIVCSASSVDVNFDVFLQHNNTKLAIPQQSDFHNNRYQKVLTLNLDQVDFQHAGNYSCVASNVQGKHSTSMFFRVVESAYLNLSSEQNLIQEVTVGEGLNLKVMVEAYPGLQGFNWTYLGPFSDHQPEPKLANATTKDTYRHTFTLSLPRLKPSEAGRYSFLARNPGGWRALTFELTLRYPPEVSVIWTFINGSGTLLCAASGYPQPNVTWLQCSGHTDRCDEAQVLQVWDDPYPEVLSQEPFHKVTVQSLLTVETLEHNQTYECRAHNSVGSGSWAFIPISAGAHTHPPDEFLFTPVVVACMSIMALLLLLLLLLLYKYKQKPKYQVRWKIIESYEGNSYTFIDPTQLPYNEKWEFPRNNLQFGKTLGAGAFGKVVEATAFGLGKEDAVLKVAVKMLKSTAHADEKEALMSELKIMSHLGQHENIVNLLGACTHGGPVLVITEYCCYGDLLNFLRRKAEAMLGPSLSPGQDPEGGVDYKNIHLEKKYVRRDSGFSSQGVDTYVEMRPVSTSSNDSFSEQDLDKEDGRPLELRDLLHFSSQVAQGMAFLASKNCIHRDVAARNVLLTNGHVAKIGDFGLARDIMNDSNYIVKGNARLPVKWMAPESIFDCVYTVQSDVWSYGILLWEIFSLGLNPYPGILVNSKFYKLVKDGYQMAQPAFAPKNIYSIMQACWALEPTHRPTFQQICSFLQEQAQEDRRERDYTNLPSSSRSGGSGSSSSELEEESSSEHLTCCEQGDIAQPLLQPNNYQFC
The experiment is described as follows: ZLyte kinase assay, CSF1R. The format is biochemical. Particulars: average of three replicates. The protocol:
as §1

In another experiment the target is T3, CSNK1A1 (Homo sapiens, UniProt P48729).
T3 construct: purchased ThermoFisher Scientific (Madison, WI, USA), contract service
T3 sequence (P48729 whole entry): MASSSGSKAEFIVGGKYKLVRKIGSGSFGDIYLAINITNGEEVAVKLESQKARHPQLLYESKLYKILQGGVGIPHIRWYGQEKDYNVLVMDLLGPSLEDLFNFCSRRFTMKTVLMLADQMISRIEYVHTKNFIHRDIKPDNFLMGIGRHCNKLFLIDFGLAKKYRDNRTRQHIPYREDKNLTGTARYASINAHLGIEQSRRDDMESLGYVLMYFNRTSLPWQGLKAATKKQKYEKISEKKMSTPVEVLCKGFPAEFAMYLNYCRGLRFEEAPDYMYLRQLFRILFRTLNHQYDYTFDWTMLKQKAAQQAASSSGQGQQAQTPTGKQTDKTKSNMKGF
The experiment is described as follows: ZLyte kinase assay, CSNK1A1. The format is biochemical. Particulars: average of three replicates. On the procedure:
as §1

The next experiment deals with T4, GSK3B (Homo sapiens, UniProt P49841).
T4 construct: purchased ThermoFisher Scientific (Madison, WI, USA), contract service
T4 sequence (P49841 whole entry): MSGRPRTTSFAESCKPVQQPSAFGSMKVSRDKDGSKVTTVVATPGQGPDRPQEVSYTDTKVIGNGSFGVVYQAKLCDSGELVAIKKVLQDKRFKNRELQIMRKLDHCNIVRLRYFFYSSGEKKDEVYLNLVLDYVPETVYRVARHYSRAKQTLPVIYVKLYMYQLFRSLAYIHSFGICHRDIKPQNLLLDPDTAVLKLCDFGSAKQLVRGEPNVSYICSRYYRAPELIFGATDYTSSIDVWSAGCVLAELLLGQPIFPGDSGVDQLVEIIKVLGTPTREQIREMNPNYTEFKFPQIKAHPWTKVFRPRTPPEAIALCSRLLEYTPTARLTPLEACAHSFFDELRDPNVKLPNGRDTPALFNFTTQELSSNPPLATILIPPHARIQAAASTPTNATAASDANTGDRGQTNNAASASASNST
The experiment is described as follows: ZLyte kinase assay, GSK3B. Type of experiment: biochemical. Particulars: average of three replicates. The protocol: as §1

The next experiment concerns the target T5, IGF1R (Homo sapiens, UniProt P08069).
T5 construct: purchased ThermoFisher Scientific (Madison, WI, USA), contract service
As to the kind of experiment: ZLyte kinase assay, IGF1R. Type of experiment: biochemical. The settings on record: average of three replicates. On the procedure: as §1

A further experiment addresses T6, MAP2K1 (Homo sapiens, UniProt Q02750).
T6 construct: purchased ThermoFisher Scientific (Madison, WI, USA), contract service
As to the kind of experiment: ZLyte kinase assay, MAP2K1. Type of experiment: biochemical. Particulars: average of three replicates. On the procedure:
as §1

The target of another experiment is T7, MAPK1 (Homo sapiens, UniProt P28482).
T7 construct: purchased ThermoFisher Scientific (Madison, WI, USA), contract service
The experiment is described as follows: ZLyte kinase assay, MAPK1. The settings on record: average of three replicates. The format is biochemical. On the procedure:
as §1

Another experiment deals with T8, MAPK3 (Homo sapiens, UniProt P27361).
T8 construct: purchased ThermoFisher Scientific (Madison, WI, USA), contract service
The experiment is described as follows: ZLyte kinase assay, MAPK3. The settings on record: average of three replicates. Type of experiment: biochemical. The protocol:
as §1

For another experiment, the target named is T9, MET (Homo sapiens, UniProt P08581).
T9 construct: purchased ThermoFisher Scientific (Madison, WI, USA), contract service
T9 sequence (P08581 25-1390): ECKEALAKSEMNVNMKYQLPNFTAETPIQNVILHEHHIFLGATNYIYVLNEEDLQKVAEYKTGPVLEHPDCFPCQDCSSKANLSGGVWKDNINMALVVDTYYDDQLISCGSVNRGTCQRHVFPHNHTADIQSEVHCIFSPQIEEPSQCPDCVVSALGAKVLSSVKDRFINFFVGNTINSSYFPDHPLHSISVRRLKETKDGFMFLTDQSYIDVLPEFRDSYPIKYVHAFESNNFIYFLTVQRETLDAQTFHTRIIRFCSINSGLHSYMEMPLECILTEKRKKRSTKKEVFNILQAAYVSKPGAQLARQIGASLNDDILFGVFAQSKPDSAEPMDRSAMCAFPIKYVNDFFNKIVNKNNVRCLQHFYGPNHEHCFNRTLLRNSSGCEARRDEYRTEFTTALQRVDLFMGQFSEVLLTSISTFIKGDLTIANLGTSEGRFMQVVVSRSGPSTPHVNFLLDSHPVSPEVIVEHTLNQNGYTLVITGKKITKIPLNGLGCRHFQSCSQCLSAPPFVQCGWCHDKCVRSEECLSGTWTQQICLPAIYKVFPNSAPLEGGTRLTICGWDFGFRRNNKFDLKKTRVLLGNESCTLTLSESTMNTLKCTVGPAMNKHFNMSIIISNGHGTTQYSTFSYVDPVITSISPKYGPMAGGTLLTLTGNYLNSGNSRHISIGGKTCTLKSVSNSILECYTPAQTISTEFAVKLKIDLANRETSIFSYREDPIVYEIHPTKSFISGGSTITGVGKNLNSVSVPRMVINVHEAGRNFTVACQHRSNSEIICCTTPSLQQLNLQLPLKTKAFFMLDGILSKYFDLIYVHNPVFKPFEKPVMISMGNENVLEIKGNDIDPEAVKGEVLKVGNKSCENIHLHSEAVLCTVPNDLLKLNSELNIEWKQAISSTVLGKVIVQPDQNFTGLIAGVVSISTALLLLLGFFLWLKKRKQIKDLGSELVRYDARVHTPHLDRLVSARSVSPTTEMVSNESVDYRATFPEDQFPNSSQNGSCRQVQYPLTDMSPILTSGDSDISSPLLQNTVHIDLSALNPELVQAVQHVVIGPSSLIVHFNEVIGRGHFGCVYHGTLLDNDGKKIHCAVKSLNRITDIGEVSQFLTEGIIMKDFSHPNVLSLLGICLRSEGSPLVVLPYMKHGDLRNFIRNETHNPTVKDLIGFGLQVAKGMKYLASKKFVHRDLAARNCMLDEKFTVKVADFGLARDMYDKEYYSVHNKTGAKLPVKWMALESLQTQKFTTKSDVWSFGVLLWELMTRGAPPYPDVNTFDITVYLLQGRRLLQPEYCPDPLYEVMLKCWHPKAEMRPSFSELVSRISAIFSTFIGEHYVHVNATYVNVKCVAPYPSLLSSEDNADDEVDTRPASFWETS
As to the kind of experiment: ZLyte kinase assay, MET. Type of experiment: biochemical. Particulars: average of three replicates. The protocol:
as §1

In a further experiment the target is T10, PDGFRA (Homo sapiens, UniProt P16234).
T10 construct: purchased ThermoFisher Scientific (Madison, WI, USA), contract service
T10 sequence (P16234 24-1089): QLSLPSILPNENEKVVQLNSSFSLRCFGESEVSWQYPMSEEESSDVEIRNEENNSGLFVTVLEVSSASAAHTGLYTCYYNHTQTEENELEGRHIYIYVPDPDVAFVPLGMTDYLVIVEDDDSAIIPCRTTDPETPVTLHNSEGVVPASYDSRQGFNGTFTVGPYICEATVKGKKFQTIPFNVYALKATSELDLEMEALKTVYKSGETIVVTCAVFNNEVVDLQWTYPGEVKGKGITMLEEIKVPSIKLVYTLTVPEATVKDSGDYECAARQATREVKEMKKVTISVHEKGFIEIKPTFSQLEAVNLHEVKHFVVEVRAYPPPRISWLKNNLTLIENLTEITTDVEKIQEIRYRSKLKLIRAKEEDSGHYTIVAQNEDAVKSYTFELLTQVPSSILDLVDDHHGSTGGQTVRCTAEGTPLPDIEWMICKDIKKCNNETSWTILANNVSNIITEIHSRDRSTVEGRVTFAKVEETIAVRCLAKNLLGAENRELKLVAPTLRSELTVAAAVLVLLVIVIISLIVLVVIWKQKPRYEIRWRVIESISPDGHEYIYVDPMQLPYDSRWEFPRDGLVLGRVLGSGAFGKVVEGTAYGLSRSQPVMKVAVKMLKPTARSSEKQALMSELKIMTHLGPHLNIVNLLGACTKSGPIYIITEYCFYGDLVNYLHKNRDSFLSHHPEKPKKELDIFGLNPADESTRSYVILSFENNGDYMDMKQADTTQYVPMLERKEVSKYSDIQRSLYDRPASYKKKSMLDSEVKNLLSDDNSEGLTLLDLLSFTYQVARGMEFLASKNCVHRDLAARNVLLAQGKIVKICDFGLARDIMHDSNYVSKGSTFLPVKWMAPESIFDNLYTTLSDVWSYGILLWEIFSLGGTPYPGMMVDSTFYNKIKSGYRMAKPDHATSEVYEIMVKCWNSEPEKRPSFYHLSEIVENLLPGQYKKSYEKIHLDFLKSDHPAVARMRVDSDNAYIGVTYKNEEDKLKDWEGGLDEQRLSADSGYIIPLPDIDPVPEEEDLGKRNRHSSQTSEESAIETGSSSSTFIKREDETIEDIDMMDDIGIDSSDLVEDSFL
As to the kind of experiment: ZLyte kinase assay, PDGFRA. Particulars: average of three replicates. The format is biochemical. The protocol: as §1

The next experiment has as its target T11, PRKACA (Homo sapiens, UniProt P17612).
T11 construct: purchased ThermoFisher Scientific (Madison, WI, USA), contract service
As to the kind of experiment: ZLyte kinase assay, PRKACA. The settings on record: average of three replicates. The format is biochemical. On the procedure:
as §1

A further experiment has as its target T12, RET (Homo sapiens, UniProt P07949).
T12 construct: purchased ThermoFisher Scientific (Madison, WI, USA), contract service
The experiment is described as follows: ZLyte kinase assay, RET. Type of experiment: biochemical. Particulars: average of three replicates. The protocol: as §1

The target of another experiment is T13, RPS6KB1 (Homo sapiens, UniProt P23443).
T13 construct: purchased ThermoFisher Scientific (Madison, WI, USA), contract service
T13 sequence (P23443 whole entry): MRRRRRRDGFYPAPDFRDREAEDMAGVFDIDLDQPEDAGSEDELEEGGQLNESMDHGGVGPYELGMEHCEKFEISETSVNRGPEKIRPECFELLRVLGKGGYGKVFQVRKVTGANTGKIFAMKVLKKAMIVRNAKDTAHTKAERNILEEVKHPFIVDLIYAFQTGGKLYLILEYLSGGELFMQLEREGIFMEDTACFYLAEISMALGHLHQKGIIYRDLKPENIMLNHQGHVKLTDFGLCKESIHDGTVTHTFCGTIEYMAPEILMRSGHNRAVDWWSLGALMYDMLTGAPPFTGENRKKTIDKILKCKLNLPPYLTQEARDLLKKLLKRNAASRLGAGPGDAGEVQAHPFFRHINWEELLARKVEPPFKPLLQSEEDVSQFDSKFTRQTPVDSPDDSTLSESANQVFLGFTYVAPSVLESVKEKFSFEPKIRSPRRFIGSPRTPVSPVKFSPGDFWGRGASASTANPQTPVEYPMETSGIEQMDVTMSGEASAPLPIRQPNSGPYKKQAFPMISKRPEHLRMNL
As to the kind of experiment: ZLyte kinase assay, RPS6KB1. Type of experiment: biochemical. The settings on record: average of three replicates. The protocol:
as §1

T6 sequence (Q02750 whole entry): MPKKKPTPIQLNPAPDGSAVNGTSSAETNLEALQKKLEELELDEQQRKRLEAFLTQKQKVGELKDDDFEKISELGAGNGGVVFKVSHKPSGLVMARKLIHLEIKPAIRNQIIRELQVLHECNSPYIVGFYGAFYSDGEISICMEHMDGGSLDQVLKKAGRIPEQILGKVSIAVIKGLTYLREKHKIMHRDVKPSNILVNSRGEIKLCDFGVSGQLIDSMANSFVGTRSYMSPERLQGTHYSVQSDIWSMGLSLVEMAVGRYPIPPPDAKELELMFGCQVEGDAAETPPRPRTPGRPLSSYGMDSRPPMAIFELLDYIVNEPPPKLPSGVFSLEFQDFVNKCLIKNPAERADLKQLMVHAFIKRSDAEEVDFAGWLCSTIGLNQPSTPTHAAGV

In general, IC50 refers to the concentration that gives 50% inhibition. For orientation: GI50 means the concentration at which growth is held to half of that of the control. What is called inhibition is the relative decrease from the control value, in per cent. On to `CCN(CC)c1ccc(C(Nc2ccccn2)c2ccc3ccc(C)nc3c2OC)cc1` (stereo not shown) [Compound 20, N-((4-Diethylaminophenyl)(8-methoxy-2-methylquinolin-7-yl)methyl)pyridin-2-amine], for which, in the experiment with GLI1 mRNA expression [1], the “anti-GLI1 activity in Sufu-KO cells (in words)” value was “inactive”. Further, the IC50 in the experiment on GLI1 mRNA expression [1] (Table 5, GLI1 mRNA) was above 25 µM; in the experiment with GLI1 mRNA expression [2] (ASZ001, Table 5, GLI1 mRNA), 1.3 ± 0.3 µM. The same molecule came in with a GI50 in the experiment with ASZ001 cells (Table 5, 48 h) above 100 µM. The inhibition at 1 µM at TGFBR1 is 6%; against CSF1R, 8%; at CSNK1A1 it was 4%; against GSK3B it was -1%; against IGF1R it was 9%; at MAP2K1 it was 7%. The inhibition at 1 µM at MAPK1 amounted to 10%; on MAPK3, 4%; on MET, 5%; at PDGFRA, 0%; at PRKACA, 4%; against RET it was 6%. The inhibition at 1 µM against RPS6KB1 was -2%.

As to `Cc1ccc2ccc(C(Nc3ccccn3)c3ccncc3)c(O)c2n1` (stereo not shown) [Compound 39, 7-((Pyridin-4-yl)(pyridin-2-ylamino)methyl)-2-methylquinolin-8-ol], the concentration for half-maximal inhibition (IC50) in the experiment on GLI1 mRNA expression [1] (Table 7, GLI1 mRNA) is 2.9 ± 1.9 µM; in the experiment with GLI1 mRNA expression [2] (ASZ001, Table 7, GLI1 mRNA), 1.9 ± 0.5 µM. For the same molecule, the GI50 in the experiment on ASZ001 cells (Table 7, 48 h) was found to be 3.9 ± 1.2 µM. The inhibition at 1 µM at TGFBR1 is 2%; against CSF1R, 10%; at CSNK1A1, 3%; at GSK3B it was 1%; on IGF1R, 12%; at MAP2K1, 14%. The inhibition at 1 µM turned out to be 7% on MAPK1; 2% against MAPK3; 4% on MET; 0% at PDGFRA; 6% on PRKACA; 8% on RET. Further, at RPS6KB1, the inhibition at 1 µM worked out at 0%.

`Cc1ccc2ccc(C(Nc3ccccn3)c3ccc(N4CCCC4=O)cc3)c(O)c2n1` (stereo not shown) [Compound 48, 7-((4-(2-Oxopyrrolidin-1-yl)phenyl)(pyridin-2-ylamino)methyl)-2-methylquinolin-8-ol]: the half-maximal inhibitory concentration (IC50) worked out at 0.82 ± 0.27 µM in the experiment with GLI1 mRNA expression [1] (Table 7, GLI1 mRNA) and 0.61 ± 0.34 µM with GLI1 mRNA expression [2] (ASZ001, Table 7, GLI1 mRNA). In addition, the concentration for 50% growth inhibition (GI50) with ASZ001 cells (Table 7, 48 h) was found to be 19.6 ± 3.6 µM. The inhibition at 1 µM at TGFBR1 is -2%; against CSF1R, 8%; against CSNK1A1, 6%; against GSK3B it was 4%; against IGF1R, 9%; at MAP2K1, 14%. For the same molecule, the inhibition at 1 µM was determined as 12% against MAPK1; 7% against MAPK3; 4% against MET; 1% on PDGFRA; 7% against PRKACA; 5% against RET. Besides, the inhibition at 1 µM against RPS6KB1 was -1%.
